Consider 16 compounds from PubChem BioAssay (NCI).

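Results reflect a 48-hour exposure of cells in 96-well plates to compound at five concentrations. GI50 = concentration required for 50% inhibition of growth. At the TGI there is no net growth.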 Where only a bound is given, the exact number is not on record here.

Among the test systems are HOP-92 NSCLC; IGROV1 ovarian; NCI-H226 lung; SF-295 CNS; SK-OV-3 ovarian; SNB-19 CNS; UO-31 renal; T-47D breast; HS 578T breast; MCF7 breast.
Assay in all cases: inhibition of tumour cell growth, NCI panel, 48 h

`CN(C)c1nc(=Nc2ccc(N=c3nc(N(C)C)ss3)cc2)ss1`: the TGI in the test on HOP-92 NSCLC was greater than 100 µM; in the test on IGROV1 ovarian, greater than 71.7 µM; with NCI-H226 lung it was greater than 100 µM; in the test with SF-295 CNS it was greater than 100 µM; in the test with SK-OV-3 ovarian, greater than 100 µM; with SNB-19 CNS it was greater than 100 µM. In the test with UO-31 renal, this compound yielded a TGI greater than 81.6 µM.
`COC(OC)C(C)CC(=O)N(C)C` (stereo not given): the TGI in the test on HOP-92 NSCLC, in the test with IGROV1 ovarian, with NCI-H226 lung, with SF-295 CNS, in the test on SK-OV-3 ovarian and with SNB-19 CNS was greater than 100 µM each time. In addition, in the test on UO-31 renal, the TGI was greater than 100 µM.
On to `C#CC1(O)CCC2C3CCc4cc(Oc5nc(F)nc(-c6c7ccccc7c7sc8ccccc8n67)n5)ccc4C3CC[C@@]21C` (stereo not given in full), for which the TGI in the test with HOP-92 NSCLC, with IGROV1 ovarian, with NCI-H226 lung, with SF-295 CNS, in the test on SNB-19 CNS and in the test on UO-31 renal was greater than 100 µM each time.
With `CCN1c2ccccc2C(C(SC)S(=O)(=O)c2ccc(C)cc2)c2c1[nH]c(=O)n(C)c2=O` (stereo not given), the TGI with HOP-92 NSCLC, in the test with IGROV1 ovarian, with NCI-H226 lung, in the test on SF-295 CNS, in the test with SK-OV-3 ovarian and with SNB-19 CNS was greater than 100 µM throughout. The compound further came in with a TGI in the test on UO-31 renal greater than 100 µM.
In the case of `Cc1c2c(nn1-c1ccc(S(=O)(=O)/N=C3\SCCC(=O)N3c3ccccc3)cc1)-c1ccccc1CC2`, the GI50 was 81.2 µM in the test on HOP-92 NSCLC; greater than 100 µM with IGROV1 ovarian; 84.4 µM in the test on NCI-H226 lung; 75.7 µM in the test with SF-295 CNS; greater than 100 µM in the test with SK-OV-3 ovarian; greater than 100 µM with SNB-19 CNS. In addition, the GI50 with T-47D breast and in the test on UO-31 renal was greater than 100 µM throughout. Moreover, the TGI in the test with HOP-92 NSCLC, in the test with IGROV1 ovarian, in the test on NCI-H226 lung, in the test with SF-295 CNS, with SK-OV-3 ovarian and in the test on SNB-19 CNS was greater than 100 µM in each case. Besides, the TGI with T-47D breast and in the test on UO-31 renal was greater than 100 µM each time.
On to `C/C(=N\NC(=S)NC(CCC(=O)O)C(=O)O)c1ccccn1` (stereo not given), for which the TGI in the test on HOP-92 NSCLC, in the test on IGROV1 ovarian, in the test with NCI-H226 lung, in the test on SF-295 CNS, with SK-OV-3 ovarian and with SNB-19 CNS was greater than 100 µM in each case. Moreover, the TGI with UO-31 renal was greater than 100 µM.
For the compound `CCOC(=O)NC(=O)c1cn(CCCO)c(=O)[nH]c1=O`, the TGI with HOP-92 NSCLC, in the test on IGROV1 ovarian, in the test on NCI-H226 lung, with SF-295 CNS, in the test on SK-OV-3 ovarian and in the test with SNB-19 CNS was greater than 100 µM throughout. This compound also gave a TGI with UO-31 renal greater than 100 µM.
As to `Cc1cc(-c2ccc3nc(C4CCOCC4)n(CCOC(F)(F)F)c3c2)cn(C)c1=O`, the GI50 is 0.182 µM with HOP-92 NSCLC, 0.0586 µM in the test on MCF7 breast and 0.748 µM in the test on SF-295 CNS. The TGI with HOP-92 NSCLC was 36.6 µM; in the test on HS 578T breast, 0.888 µM; with IGROV1 ovarian, 6.91 µM; in the test on NCI-H226 lung it was 8.47 µM; in the test on SK-OV-3 ovarian, 1.25 µM; with UO-31 renal, greater than 20.7 µM.
In the case of `CC1=CC(O)(c2ccc(-c3ccccc3Cl)cc2)OC1=O` (stereo not given), the TGI in the test with HOP-92 NSCLC, with IGROV1 ovarian, with SF-295 CNS, in the test on SK-OV-3 ovarian, in the test with SNB-19 CNS and in the test on UO-31 renal was greater than 100 µM each time.
In the case of `C[Si](C)(C)C1(Sc2ccccc2)SCCCS1`, the TGI was greater than 100 µM in the test on HOP-92 NSCLC; greater than 100 µM with IGROV1 ovarian; greater than 100 µM in the test with SF-295 CNS; greater than 100 µM in the test with SK-OV-3 ovarian; greater than 100 µM with SNB-19 CNS; 39.8 µM with UO-31 renal.
Consider `Clc1ccc(C(c2ccc(Cl)cc2)c2ccccn2)cc1`, for which the TGI with HOP-92 NSCLC is 30.1 µM; in the test with IGROV1 ovarian it was greater than 100 µM; in the test on NCI-H226 lung, 31.9 µM; in the test with SF-295 CNS, 43.4 µM; with SK-OV-3 ovarian it was 86.5 µM; with SNB-19 CNS, 51.5 µM. The compound also displayed a TGI with UO-31 renal of 30.5 µM.
`COc1cc(/C=C2\CN(S(=O)(=O)c3ccccc3)C/C(=C\c3cc(CN4CCCC4)c(O)c(OC)c3)C2=O)cc(CN2CCCC2)c1O`: the GI50 in the test on HOP-92 NSCLC is 1.51 µM; in the test with HS 578T breast, 2.52 µM; in the test with IGROV1 ovarian, 1.54 µM; with SF-295 CNS, 1.55 µM; in the test with SNB-19 CNS it was 1.49 µM; in the test with T-47D breast, 3.76 µM. The GI50 with UO-31 renal is 1.92 µM. The TGI in the test on HOP-92 NSCLC is 4.69 µM; with HS 578T breast it was 7.22 µM; in the test on IGROV1 ovarian, 3.29 µM; with SF-295 CNS, 3.64 µM; with SNB-19 CNS, 3.08 µM; in the test on T-47D breast it was greater than 100 µM. This compound also came in with a TGI in the test with UO-31 renal of 5.31 µM.
As to `Brc1ccccc1C1SCc2nc3ccccc3n21` (stereo not given), the TGI in the test on HOP-92 NSCLC stood at 26.8 µM; with IGROV1 ovarian, 70.6 µM; in the test with NCI-H226 lung, 31.6 µM; in the test on SF-295 CNS, 82.9 µM; in the test with SK-OV-3 ovarian it was 56.7 µM; in the test with UO-31 renal it was 22.6 µM.
With `O=C(/C=C\c1ccc(Cl)c(Cl)c1)c1ccc(Cl)cc1Cl`, the TGI in the test with IGROV1 ovarian was 49.8 µM; in the test on NCI-H226 lung it was 21.2 µM; in the test with SF-295 CNS it was 47.1 µM; in the test on SK-OV-3 ovarian, 51 µM; in the test on SNB-19 CNS it was 56.2 µM; in the test with UO-31 renal, greater than 100 µM. For the same compound, the GI50 in the test on NCI-H226 lung is 6.39 µM; in the test on UO-31 renal, greater than 100 µM.
For `CCOC(=O)CC(=O)ON(C)C(C)=O`, the TGI in the test with IGROV1 ovarian, in the test with NCI-H226 lung, in the test with SF-295 CNS, in the test with SK-OV-3 ovarian, with SNB-19 CNS and in the test on UO-31 renal was greater than 100 µM throughout.
Regarding `CC(C)=Cc1cc(C(=O)Nc2ccc(Cl)c(Cl)c2)nc(N)n1`, the TGI with HOP-92 NSCLC, with IGROV1 ovarian, in the test with NCI-H226 lung, with SF-295 CNS, in the test on SNB-19 CNS and with UO-31 renal was greater than 100 µM throughout.
